Measurements as given in patent EP4745134A1 (Jiangsu Yahong Meditech Co., Ltd., priority 2023, dated 2025).
pIC50: −log10 of the molar value.

Target: PRMT5-MTA (Homo sapiens, UniProt O14744)
Experiment: Enzymatic inhibitory activity against PRMT5-MTA (AlphaScreen)
Assay type: biochemical
Conditions: read-out: IC50
Method: The AlphaScreen method was used to detect the enzymatic inhibitory activity of the compounds against PRMT5-MTA. 1 x Methyltransferase assay buffer IV (signalchem) was prepared as a solution for diluting each component for the enzymatic reaction. PRMT5/[…] protein of a final concentration of 1 nM, […] (sigma) of a final concentration of 1 uM and S-(5'-adenosine)-L-methionine chloride dihydrochloride (sigma) of a final concentration of 2.5 uM were mixed, then incubated for 30 minutes at room temperature, and transferred to an OptiPlate-384 well plate (PerkinElmer) at a volume of 6 uL per well, for which no PRMT5/[…] protein was added to the control wells. The test compound was 3-fold serially diluted into 10 concentrations, starting from a concentration of 1000 nM, and the series of diluted compounds were added to all wells except the control wells in the well plate using Tecan D300e. The well plate was subjected to centrifugation for 1 minute at 1000 rpm in a centrifuge, and then incubated for 15 minutes at 23°C. Histone H4 substrate of a final concentration of 5 nM was added to the well plate at 4 uL per well, centrifuged for 1 minute at 1000 rpm in a centrifuge, then placed in an incubator at 23°C and reacted for 45 minutes. Anti-histone H4 (symmetrical dimethyl R3) antibody (Abcam) was incubated with 50 ug/mL of AlphaScreen Protein A Acceptor beads (PerkinElmer) for 10 minutes at room temperature beforehand, and then added to the well plate at a volume of 10 uL per well. The mixture was reacted for 1 hour at room temperature. 50 Ug/mL of AlphaScreen Streptavidin Donor beads (PerkinElmer) was added at 10 uL per well, and reacted for 1 hour at room temperature. The signal values were detected for the well plate through the Alpha method using an Envision multifunctional microplate-reader, and the IC50 values for inhibition of the compounds on PRMT5/MET50 enzyme activity were calculated in Xlfit 5.0 software. Table 1. IC50 values for inhibition of the compounds on PRMT5+MTA enzyme activity

PRMT5-MTA, sequence (O14744 whole entry): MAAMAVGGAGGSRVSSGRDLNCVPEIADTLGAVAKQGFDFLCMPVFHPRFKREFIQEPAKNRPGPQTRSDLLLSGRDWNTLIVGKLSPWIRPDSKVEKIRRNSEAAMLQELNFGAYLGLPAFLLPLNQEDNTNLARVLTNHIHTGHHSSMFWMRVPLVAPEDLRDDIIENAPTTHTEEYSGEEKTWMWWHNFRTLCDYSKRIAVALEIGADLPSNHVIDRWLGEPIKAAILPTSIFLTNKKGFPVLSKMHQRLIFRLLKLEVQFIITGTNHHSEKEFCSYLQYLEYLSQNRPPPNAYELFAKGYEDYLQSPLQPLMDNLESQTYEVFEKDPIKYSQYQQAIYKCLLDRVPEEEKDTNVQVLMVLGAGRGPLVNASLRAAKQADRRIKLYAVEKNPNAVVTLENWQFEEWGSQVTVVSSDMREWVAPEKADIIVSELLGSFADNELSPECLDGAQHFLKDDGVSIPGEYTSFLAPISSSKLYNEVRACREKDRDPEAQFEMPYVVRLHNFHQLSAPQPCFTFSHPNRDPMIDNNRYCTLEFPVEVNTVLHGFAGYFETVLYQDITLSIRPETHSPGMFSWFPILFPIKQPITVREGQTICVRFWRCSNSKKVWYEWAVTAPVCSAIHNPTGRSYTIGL
PRMT5-MTA, sequence (Q9BQA1 whole entry partner): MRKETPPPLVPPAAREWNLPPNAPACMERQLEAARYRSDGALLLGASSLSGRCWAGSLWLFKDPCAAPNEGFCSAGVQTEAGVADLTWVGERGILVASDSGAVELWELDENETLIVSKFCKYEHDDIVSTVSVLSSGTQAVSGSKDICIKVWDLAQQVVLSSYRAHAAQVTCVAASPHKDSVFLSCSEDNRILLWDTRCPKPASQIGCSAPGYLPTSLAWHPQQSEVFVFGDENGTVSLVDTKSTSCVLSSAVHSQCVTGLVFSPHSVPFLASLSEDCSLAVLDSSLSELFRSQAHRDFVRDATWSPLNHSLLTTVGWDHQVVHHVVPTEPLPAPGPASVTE

| pIC50 | SMILES |
| --- | --- |
| 8.89 | Cc1cc2cc(C(=O)N(Cc3ccc(C4CC4)cc3F)N(C)c3nccc4nccnc34)ccc2nc1N [Example 167, 2-amino-N-(4-cyclopropyl-2-fluorobenzy 1)-N',3-dimethyl-N'-(pyrido[3,4-b]pyrazin-5-yl)quinoline-6-carbohydrazide] |
| 8.64 | CCc1cccnc1N(C)N(Cc1ccc(C(F)(F)F)cn1)C(=O)c1ccc2nc(N)c(C)cc2c1 [Example 134, 2-amino-N'-(3-ethylpyridin-2-yl)-N',3-dimethyl-N-((5-(trifluoromethyl)pyridin-2-yl)methyl)quinoline-6-carbohydrazide] |
| 8.34 | CN(C(=O)c1ccc2nc(N)c3c(c2c1)COC3)N(C)c1ccc(C(F)(F)F)cn1 [Example 55, 4-amino-N,N'-dimethyl-N'-(5-(trifluoromethyl)pyridin-2-yl)-1,3-dihydrofuro[3,4-c]quinoline-8-carbohydrazide] |
| 8.68 | Cc1cc2nc(N)c3cnn(C)c3c2cc1C(=O)N1CCCN1c1nccc2nccnc12 [Example 331, (4-amino-1,7-dimethyl-1H-pyrazolo[4,3-c]quinolin-8-yl)(2-(pyrido[3,4-b]pyrazin-5-yl)pyrazolidin-1-yl)methanone] |
| 8.36 | Cc1cc2nc(N)c3c(cnn3C)c2cc1C(=O)N1CCCN1c1ncccc1F [Example 501, (4-amino-3,7-dimethyl-3H-pyrazolo[3,4-c]quinolin-8-yl)(2-(3-fluoropyridin-2-yl)pyrazolidin-1-yl)methanone] |
| 8.40 | Cc1cc2nc(N)c3cnn(C)c3c2cc1C(=O)N(C)N1CCc2ncccc21 [Compound 114, 4-amino-N-(2,3-dihydro-1H-pyrrolo[3,2-b]pyridin-1-yl)-N,1,7-trimethyl-1H-pyraz olo[4,3-c]quinoline-8-carboxamide] |
| 8.29 | Cn1ncc2c(N)nc3cc(C4CC4)c(C(=O)N4CCCN4c4ccc(C(F)(F)F)cn4)cc3c21 [Example 497, (4-amino-7-cyclopropyl-1-methyl-1H-pyr azolo[4,3-c]quinolin-8-yl)(2-(5-(trifluoromethyl)pyridin-2-yl)pyrazolidin-1-yl)met hanone] |
| 8.39 | Cc1cc2nc(N)c3cnn(C)c3c2cc1C(=O)N(Cc1ccc(-c2scnc2C)cn1)N(c1ncccn1)C1CC1 [Example 251, 4-amino-N'-cyclopropyl-1,7-dimethyl-N-((5-(4-methylthiazol-5-yl)pyridin-2-yl)methyl)-N'-(pyrimidin-2-yl)-1H-pyrazolo[4 ,3-c]quinoline-8-carbohydrazide] |
| 8.51 | Cc1cc2cc(C(=O)N(Cc3ccc(C(F)(F)F)cn3)N(C)c3nccc4ccccc34)ccc2nc1N [Example 45, 2-amino-N'-(isoquinol-1-yl)-N',3-dimethyl-N-((5-(trifluoromethyl)pyridin-2-yl)methyl)quinoline-6-carbohydrazide] |
| 8.70 | CN(c1ncccn1)N(Cc1ccc(C(F)(F)F)cn1)C(=O)c1cc2c(cc1F)nc(N)c1cnn(C)c12 [Example 14, 4-amino-7-fluoro-N',1-dimethyl-N'-(pyrimidin-2-yl)-N-((5-(trifluoromethyl)pyridin-2-yl)methyl)-1H-pyrazolo[4,3-c]quinoline-8-carbohydrazide] |
| 8.43 | Cc1cc2cc(C(=O)N(Cc3ccc(C(C)(C)O)cn3)N(C)c3ncccn3)ccc2nc1N [Example 290, 2-amino-N-((5-(2-hydroxyprop-2-yl)pyridin-2-yl)methyl)-N',3-dimethyl-N'-(pyrimidin-2-yl)quinoline-6-carbohydrazide] |
| 8.35 | Cc1cc2cc(C(=O)N(Cc3cnc(Br)cn3)N(C)c3ncccn3)ccc2nc1N [Example 282, 2-amino-N-((5-bromopyrazin-2-yl)methyl)-N',3-dimethyl-N'-(pyrimidin-2-yl)quinoline-6-carbohydrazide] |
| 8.42 | Cc1cc2cc(C(=O)N(Cc3ccc(C(F)(F)F)cn3)N(C)c3cc(C(F)(F)F)ccn3)ccc2nc1N [Example 43, 2-amino-N',3-dimethyl-N'-(4-(trifluoromethyl)pyridin-2-yl)-N-((5-(trifluoromethyl)pyridin-2-yl)methyl)quinoline-6-carbohydrazide] |
| 8.70 | COCCN(c1ncccn1)N(Cc1ccc(C(F)(F)F)cn1)C(=O)c1ccc2nc(N)c(C)cc2c1 [Example 4, 2-amino-N'-(2-methoxyethyl)-3-methyl-N'-(pyrimidin-2-yl)-N-((5-(trifluoromethyl)pyridin-2-yl)methyl)quinoline-6-carbohydrazide] |
| 8.11 | Cc1cc2cc(C(=O)N(Cc3ccc(-c4ccc(N(C)C5CC5)nc4)cn3)N(C)c3ncccn3)ccc2nc1N [Compound 247, 2-amino-N-((6'-(cyclopropyl(methyl)amino)-[3,3'-bipyridine]-6-yl)methyl)-N',3-di methyl-N'-(pyrimidin-2-yl)quinoline-6-carbohydrazide] |
| 8.72 | Cc1cc2cc(C(=O)N(Cc3ccc(C(F)(F)F)cn3)N(C)c3c(F)cccc3C(F)(F)F)ccc2nc1N [Example 44, 2-amino-N'-(2-fluoro-6-(trifluoromethyl)phenyl)-N',3-dimethyl-N-((5-(trifluoromethyl)pyridin-2-yl)methyl)quinoline-6-car bohydrazide] |
| 8.07 | Cc1cc2nc(N)c3c(cnn3C)c2cc1C(=O)N1CC(C)CN1c1ncccc1F (stereo not drawn) [Example 504, (4-amino-3,7-dimethyl-3H-pyrazolo[3,4-c]quinolin-8-yl)(2-(3-fluoropyridin-2-yl)-4-methylpyrazolidin-1-yl)methanone] |
| 8.52 | Cn1ncc2c(N)nc3cc(C(F)(F)F)c(C(=O)N4CCCN4c4ccc(C(F)(F)F)cn4)cc3c21 [Example 505, (4-amino-1-methyl-7-trifluoromethyl-1H-pyrazolo[4,3-c]quinolin-8-yl)(2-(5-(trifluoromethyl)pyridin-2-yl)pyrazolidin-1-yl) methanone] |
| 8.40 | Cc1cc2nc(N)c3cnn(C)c3c2cc1C(=O)N(Cc1ccc(C(F)(F)F)cn1)N(C)c1ncccn1 [Example 13, 4-amino-N',1,7-trimethyl-N'-(pyrimidin-2-yl)-N-((5-(trifluoromethyl)pyridin-2-yl)methyl)-1H-pyrazolo[4,3-c]quinoline-8-c arbohydrazide] |
| 8.46 | CN(C(=O)c1cc2c(cc1F)nc(N)c1cnn(C)c12)N1CCc2cc(C(F)(F)F)cnc21 [Example 31, 4-amino-7-fluoro-N,1-dimethyl-N-(5-(trifluoromethyl)-2,3-dihydro-1H-pyrrolo[2,3-b]pyridin-1-yl)-1H-pyrazolo[4,3-c]quinoline-8-carboxamide] |
| 8.48 | Cc1cc2cc(C(=O)N(Cc3ccc(-c4scnc4C)cn3)N(c3nccc4nccnc34)C3CC3)ccc2nc1N [Example 165, 2-amino-N'-cyclopropyl-3-methyl-N-((5-(4-methylthiazol-5-yl)pyridin-2-yl)methy 1)-N'-(pyrido[3,4-b]pyrazin-5-yl)quinoline-6-carbohydrazide] |
| 8.24 | Cc1cc2nc(N)c3c(cnn3C)c2cc1C(=O)N(Cc1ccc(C(F)(F)F)cn1)N(C)c1ncccn1 [Example 81, 4-amino-N',3,7-trimethyl-N'-(pyrimidin-2-yl)-N-((5-(trifluoromethyl)pyridin-2-yl)methyl)-3H-pyrazolo[3,4-c]quinoline-8-carbohydrazide] |
| 8.46 | CN(C(=O)c1cc2c(cc1F)nc(N)c1cnn(C)c12)N(C)c1ncc(C(F)(F)F)cc1F [Example 37, 4-amino-7-fluoro-N'-(3-fluoro-5-(trifluor omethyl)pyridin-2-yl)-N,N',1-trimethyl-1 H-pyrazolo[4,3-c]quinoline-8-carbohydrazide] |

Test system: HCT116 MTAP KO cells
Experiment: Inhibitory activity against cell proliferation (CellTiter Glo, 6 days), HCT116 MTAP KO
Assay type: cell-based
Conditions: Homo sapiens, HCT-116, 144 h, HCT116 MTAP KO cells, 6 days, CellTiter Glo; read-out: HCT116 MTAP KO IC50
Method: HCT116-WT (ATCC, CCL-247) and HCT116 MTAP KO (Nanjing Cobioer, CBP75002) cells were seeded into white low-transparency sterile 96-well cell culture plates at a density of 250 cells per well respectively, and the culture medium was McCoy's 5A Medium+10% FBS. The plates were placed under the condition of 37°C and 5% CO2 to be cultured overnight. The cells were treated with 4-fold serially diluted compounds of 8 concentration points starting at an initial concentration of 10000 nM, and the last two columns were used as control wells to which only DMSO was added. The drug-treated cells were further cultured for 6 days. On day 7, CellTiter Glo® reagent was added at 50 uL per well, and after reaction under shaking for 10 minutes at room temperature, the chemiluminescence signals were detected for the well plates through the chemiluminescence detection method using a BIOTEK H1 multifunctional microplate-reader. The IC50 values for inhibition of the compounds on cell viability were calculated in X1fit 5.0 software. Table 2. IC50 values for inhibition of the compounds on HCT116 MTAP KO/WT cell growth

| pIC50 | SMILES |
| --- | --- |
| < 5.00 | CN(c1ncccn1)N(Cc1ccc(C(F)(F)F)cn1)C(=O)c1ccc2c(c1)nc(N)n2C [Example 36, 2-amino-N',1-dimethyl-N'-(pyrimidin-2-yl)-N-((5-(trifluoromethyl)pyridin-2-yl)methyl)-1H-benzo[d]imidazole-5-carbohydrazide] |
